Assays:
[1] = test system: drug-sensitive and drug-resistant gastric and breast cancer cell lines; assay: Cytotoxicity of the MDR modulators alone (SRB proliferation assay); type: cell-based, human
Description: (§1) Modulation of chemoresistance was tested using a proliferation assay based on sulforhodamine B (SRB), a protein-binding reagent (Skehan P et al., J Natl Cancer Inst 1990;82:1107-12), as described in Lage H et al., Int J Hyperthermia 2000;16:291-303; Lage H et al., FEBS Lett 2001;503:179-84; Lage H et al., FEBS Lett 2001;494:54-9. In each experiment, 350 cells per well were seeded in the presence or absence of TPS-A in 96-well plates in complete medium and allowed to attach overnight. Mitoxantrone or daunorubicin were added in a dilution series in triplicate wells. After 5 days, when unselected wells were still subconfluent, incubation was terminated by replacing the medium with 10 % trichloroacetic acid, followed by incubation at 4 °C for 1 h. After samples were washed 5 times with water and air-dried, 50 µl 0.4 % SRB (Sigma, St. Louis, MO) in 1 % acetic acid was added and samples were incubated for 10 min at room temperature. Unbound dye was eliminated by washing the plates 5 times with 1 % acetic acid. After air-drying and re-solubilisation of the protein-bound dye in 10 mM Tris-HCl (pH 8.0), absorbance was quantified at 562.5 nm. To determine the IC50-value, the absorbance difference of control cells without drug was set to be 100 %. Linear regression of data was done for the linear part of the curve, and IC50-values were calculated from multiple, at least three independent experiments for each cell line.
The cytotoxicity of the MDR modulators TPS-A and GF120918 on drug-sensitive and drug-resistant gastric and breast cancer cell lines was initially assessed.

[2] = test system: gastric and breast carcinoma cell variants; assay: Modulation of chemoresistance to mitoxantrone or daunorubicin (SRB proliferation assay, IC50/DMF); type: cell-based, human
Description: as §1
The cellular sensitivity to mitoxantrone and daunorubicin was assessed by determining the IC50 values without or with increasing concentrations of TPS-A or GF120918 as a positive control in the different cancer cell variants. Table 1 presents the data of TPS-A reversal of mitoxantrone and daunorubicin resistance in different gastric and breast carcinoma cell variants, respectively. […] In each case, the equation DMF=(IC50 (-CS))/(IC50 (+CS)) [formula] was used to calculate the dose modifying factor (DMF), comparing the IC50 values in the presence (+CS) or absence (-CS) of the corresponding chemosensitizer (CS) TPS-A or GF120918.

[3] = test system: EPG85-257RDB cells; assay: Modulation of chemoresistance to daunorubicin (SRB proliferation assay, IC50/DMF); type: cell-based, human; settings: GF120918; classical MDR, P-gp-expressing cells (Table 2, Figure 3B)
Description: as §1, with “After samples were washed 5 times with water and air-dried, 50 µl 0.4 % SRB (Sigma, St. Louis, MO) in 1 % acetic acid was added and samples were incubated for 10 min at room temperature. Unbound dye was eliminated by washing the plates 5 times with 1 % acetic acid.” left out, “To determine the IC50-value, the absorbance difference of control cells without drug was set to be 100 %.” left out
The cellular sensitivity to mitoxantrone and daunorubicin was assessed by determining the IC50 values without or with increasing concentrations of TPS-A or GF120918 as a positive control in the different cancer cell variants. […]

[4] = test system: BCRP-transfected cell variant MCF-7/BCRP clone 8; assay: Mitoxantrone accumulation assay (flow cytometry); type: cell-based, human; settings: 1 µM GF120918; compared to drug accumulation level in the untreated, parental control cell line (Fig 4B)
Description: (§2) Cellular mitoxantrone accumulation was determined according to the procedure described in Lage H et al., FEBS Lett 2001;503:179-84. Briefly, 4 x 10^5 cells were seeded out in 6-well plates 78 hours prior to the experiment. Incubation with mitoxantrone (0, 1,5 and 10 µg/ml) was performed for 60 minutes at 37°C and 70-80 % cellular confluence. For kinetics of intracellular enrichment of mitoxantrone, cells were exposed to 10 µg/ml mitoxantrone for 0, 5, 10 and 60 min. Cells were washed with ice-cold PBS, trypsinized and resuspended in 4 °C PBS at a concentration of 4 x 10^5 cells/ml. Intracellular fluorescence of mitoxantrone was determined by flow cytometry (Becton-Dickinson, San Jose, CA). The cells were excited at 480 nm and emission was measured at 630 nm. A minimum of 10^4 cells was analyzed for each sample. All assays were performed at least in three independent experiments, each time with triplicate wells.
(§3) To provide confirmation that the observed resensitization to mitoxantrone of BCRP-overexpressing cells was indeed the result of BCRP inhibition by TPS-A, a mitoxantrone accumulation assay was performed. The known so-called "multispecific" MDR modulator GF120918, inhibiting P-gp- and BCRP activity, was used as a positive control for P-gp- and BCRP antagonism.

[5] = test system: BCRP; assay: Mitoxantrone accumulation assay (flow cytometry); type: cell-based, human; settings: human, probe mitoxantrone; 1 µM GF120918 (Fig 4); read-out: mitoxantrone accumulation inhibiting effect
Description: as §2, §3

[6] = test system: MCF-7/AdrVp; assay: Mitoxantrone accumulation assay (flow cytometry); type: cell-based, human; settings: 1 µM GF120918
Description: as §2, §3

[7] = test system: P-gp; assay: Mitoxantrone accumulation assay (flow cytometry); type: cell-based, human; settings: human, EPG85-257RDB cells (P-gp-expressing, classical MDR variant), probe mitoxantrone; 1 µM GF120918 (Fig 4); read-out: inhibition of mitoxantrone pump activity
Description: as §2, §3

[8] = test system: drug-sensitive, parental cell line MCF-7; assay: Mitoxantrone accumulation assay (flow cytometry); type: cell-based, human; settings: increasing modulator concentrations
Description: as §2, §3

[9] = test system: parental, drug-sensitive gastric carcinoma cell variant EPG85-257P; assay: Mitoxantrone accumulation assay (flow cytometry); type: cell-based, human; settings: GF120918 (Fig 4)
Description: as §2, §3

[10] = test system: BCRP overexpressing cells (EPG85-257RNOV); assay: C6-NBD-PS outward translocation assay; type: cell-based, human; settings: pretreatment with 10 µM inhibitor; 30 minutes at 37°C (Fig. 8)
Description: (§4) To measure redistribution of C6-NBD-PS from the cytoplasmic to the exoplasmic leaflet, labelling of the cytoplasmic leaflet is preconditional. Previously, we have introduced a method to achieve efficient labeling of the plasma membrane inner leaflet of the gastric carcinoma cell line EPG85-257 (Pohl, A., Lage, H., Müller, P., Pomorksi, T., and Herrmann. A. (2002) Biochem. J. 365, 259-268). Briefly, cells were preincubated with or without MDR inhibitors, labelled with 5 µM C6-NBD-PS, and incubated at 20°C for 30 minutes to allow inward movement of the NBD analogue. C6-NBD-PS remaining on the cell surface was extracted twice by incubation with 2% (w/v) BSA in mPBS for 10 minutes on ice. Before starting the outward translocation assay, the medium was removed, and cells were washed with ice-cold mPBS. For t=0', ice-cold medium containing 2% (w/v) BSA and 5 mM DFP ( = diisopropyl fluoro-phosphate) in mPBS with or without inhibitor was immediately added to the cell dish for 10 minutes. To measure C6-NBD-PS outward translocation, medium prewarmed to 37°C was added to the dish, and cells were incubated at 37°C for 30 minutes (t = 30'). Removal of the BSA-containing media and a second extraction with 2% BSA in mPBS for 10 minutes terminated incubations, followed by lipid analysis.
(§5) After the incubations, the second BSA back exchange medium was pooled with the first, and cells scraped into mPBS. For analysis of outward translocation and of metabolic conversion of C6-NBD-PS, lipids from both scraped cells and media were extracted with isopropanol/chloroform/(5.5:1, v/v) to prevent substantial loss into the aqueous phase. Samples were centrifuged at 780 g for 5 minutes, the supernatant transferred into new glass tubes and dried, dissolved in chloroform/methanol (1:1) and quantified spectroscopically. For C6-NBD-PC analysis, lipids from both cells and incubation media were extracted by the method of Bligh and Dyer (Bligh, E., and Dyer, W. (1959) Can. J Biochem. Physiol. 37, 911-917) using 20 mM acetic acid in the aqueous phase. After 2-D separation [I, chloroform/methanol/25% ammonium hydroxide (65:25:4, v/v); II, chloroform/acetone/methanol/acetic acid/water (10:4:2:2:1, v/v)] on thin layer chromatography plates, fluorescent lipid spots were visualized under ultraviolet light, scraped, and quantified as described before (Pomorski, T., Müller, P., Zimmermann, B., Burger, K., Devaux, P., and Herrmann, A. (1996) J. Cell Sci. 109, 687-698).

[11] = test system: MDR1 Pgp overexpressing subline (EPG85-257RDB); assay: C6-NBD-PS outward translocation assay; type: cell-based, human; settings: 10 µM inhibitor; 30 minutes at 37°C (Fig. 8)
Description: as §4, §5

[12] = test system: control cells (EPG85-257P); assay: C6-NBD-PS outward translocation assay; type: cell-based, human; settings: 10 µM inhibitor; 30 minutes at 37°C (Fig. 8)
Description: as §4, §5

[13] = biological target: P-gp (Homo sapiens, UniProt P08183); settings: literature (Hyafil F et al., Cancer Res 1993); cited from earlier work
P-gp (Homo sapiens, UniProt P08183), sequence (P08183 whole entry): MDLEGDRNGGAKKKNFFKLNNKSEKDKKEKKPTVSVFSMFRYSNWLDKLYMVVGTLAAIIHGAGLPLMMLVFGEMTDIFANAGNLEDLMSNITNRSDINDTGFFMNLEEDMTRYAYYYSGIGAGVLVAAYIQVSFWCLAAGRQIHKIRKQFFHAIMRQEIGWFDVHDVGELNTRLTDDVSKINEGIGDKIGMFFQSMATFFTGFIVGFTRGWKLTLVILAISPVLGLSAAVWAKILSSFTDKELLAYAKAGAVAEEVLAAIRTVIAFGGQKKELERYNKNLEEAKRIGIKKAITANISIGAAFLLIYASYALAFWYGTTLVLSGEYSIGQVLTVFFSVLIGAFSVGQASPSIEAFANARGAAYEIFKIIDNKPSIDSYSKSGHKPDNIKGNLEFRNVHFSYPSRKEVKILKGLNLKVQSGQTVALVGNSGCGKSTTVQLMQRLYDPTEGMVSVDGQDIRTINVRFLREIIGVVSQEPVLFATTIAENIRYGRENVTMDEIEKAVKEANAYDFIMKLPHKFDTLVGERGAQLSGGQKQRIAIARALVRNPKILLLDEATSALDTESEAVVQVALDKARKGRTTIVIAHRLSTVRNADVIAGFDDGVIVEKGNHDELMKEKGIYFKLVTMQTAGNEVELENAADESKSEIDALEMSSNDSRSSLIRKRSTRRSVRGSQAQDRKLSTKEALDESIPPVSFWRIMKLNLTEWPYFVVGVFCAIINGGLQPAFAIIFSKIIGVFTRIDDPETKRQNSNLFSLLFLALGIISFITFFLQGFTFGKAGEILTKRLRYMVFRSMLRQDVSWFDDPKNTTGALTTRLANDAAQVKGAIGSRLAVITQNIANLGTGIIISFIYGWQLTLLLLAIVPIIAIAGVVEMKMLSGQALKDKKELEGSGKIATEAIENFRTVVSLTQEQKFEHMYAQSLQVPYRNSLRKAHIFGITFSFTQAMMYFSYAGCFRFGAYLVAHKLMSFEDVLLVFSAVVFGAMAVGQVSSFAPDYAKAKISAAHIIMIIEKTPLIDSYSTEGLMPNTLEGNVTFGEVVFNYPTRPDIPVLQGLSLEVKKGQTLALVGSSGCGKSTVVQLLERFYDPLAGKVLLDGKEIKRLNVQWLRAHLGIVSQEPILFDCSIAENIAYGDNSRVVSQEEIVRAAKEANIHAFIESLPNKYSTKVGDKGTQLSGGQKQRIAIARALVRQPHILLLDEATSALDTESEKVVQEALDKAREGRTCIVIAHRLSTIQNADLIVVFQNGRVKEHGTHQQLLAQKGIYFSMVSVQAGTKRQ

## COc1cc2c(cc1OC)CN(CCc1ccc(NC(=O)c3cccc4c(=O)c5cccc(OC)c5[nH]c34)cc1)CC2 [GF120918, reference compound]
[1]; 1 µM GF120918 alone, any of the drug-sensitive or drug-resistant cancer cell lines tested
  growth inhibitory effect: no growth inhibitory effect
[1]; multidrug-resistant tumor cell lines
  cross-resistance to the MDR modulator: No evidence of cross-resistance
[2]; 1 µM GF120918, EPG85-257RNOV and EPG85-257RDB, same for MCF7/BCRP clone 8 and MCF-7/AdrVp
  restoration of drug sensitivity (mitoxantrone resistance): not sufficient to restore drug sensitivity completely
[2]; GF120918, BCRP- and P-gp-expressing stomach and mamma carcinoma-derived cell lines (Table 2, Figure 3A)
  resensitization to mitoxantrone: dose-depending resensitization
[2]; GF120918, the other human gastric and breast cancer cell lines (not EPG85-257RDB)
  effect on sensitivity to daunorubicin: no significant effect
[3]
  sensitization to daunorubicin: considerable dose-depending sensitization
[4]
  inhibition of the mitoxantrone pump activity: completely
[5]
  inhibition at 1 µM: 80%
[6]
  increase of drug accumulation with respect to control cells: 40%
[7]
  inhibition at 1 µM: 75%
[8]
  effect on drug accumulation: only a weak dosage-depending effect
[9]
  transporter inhibiting effect (mitoxantrone accumulation): very weak transporter inhibiting effect
[10]
  amount of C6-NBD-PS in the BSA containing medium (outward translocation): sharp and highly significant decrease
[11]
  PS analogue outward translocation (MDR1 Pgp lipid transport activity): significant reduction
[12]
  PS transport (C6-NBD-PS outward translocation): did not affect PS transport significantly
[13]
  concentration capable of restoring drug sensitivity (as low as): 100 nM

— patent EP1464336A1, “Use of tryprostatin A for the reversal of cancer drug resistance” (Humboldt-Universität zu Berlin, priority 2003, dated 2004)
